Consider one compound from US11925656B2, “Biological total joint replacement” (priority 2014, dated 2024).

The test system of one test is IL-1 beta. Nature of the test: IL-1 beta in synovium by ELISA, rabbit arthritis model. The class given is in vivo. The conditions noted are these: therapeutic groups, oral days 42-70, vs control. The text has this: (§1) The study was approved by the Institutional Animal Care and Use Committee (IACUC) of Thomas D. Morris, Inc. 28 New Zeeland White rabbits were selected for the study. Six such were randomly assigned to one of four groups; prophylactic cyanidin-3-glycoside (C3G)(referred to figures as Cl 1-42), prophylactic protocatechuic acid (PCA)(referred to in figures as PCA 1-42), therapeutic C3G (referred to in figures as Cl 42-70), and therapeutic PCA (referred to in figures as PCA 42-70). There were four controls, two each to the prophylactic and therapeutic groups.
(§2) The prophylactic groups were given PROC3G™ by Chromadex™ at a dose of 30 mg/kg of body weight of either C3G or PCA by mouth, 7 times per week for 42 days. The therapeutic groups' treatment was initiated on day 42 with a daily dose of PROC3G™ by Chromadex™ 7 times per week for 4 weeks. The dose of 30 mg of cyanidin-3-glucoside per kg of body weight calculates to be 0.177 millimoles per kg body weight. The dose of PCA was the same in terms of millimoles per kg body weight. […]
Interleukin-1 beta (IL-1p) also known as catabolic, is a cytokine protein. […] Increased production of IL-1B causes a number of different auto-inflammatory syndromes. • Synovial Fluid—Detected by ELISA • Levels of IL-1 beta were decreased in all groups. See FIG. 2A. • Synovial Tissue (Synovium)—Detected by ELISA

The next test deals with ADAMTS-5 gene expression. Nature of the test: ADAMTS-5 gene expression in synovium by real-time PCR, rabbit arthritis model. The class given is in vivo. The settings on record: therapeutic groups, oral days 42-70, vs control.
Text: as §1
(§3) The prophylactic groups were given PROC3G™ by Chromadex™ at a dose of 30 mg/kg of body weight of either C3G or PCA by mouth, 7 times per week for 42 days. The therapeutic groups' treatment was initiated on day 42 with a daily dose of PROC3G™ by Chromadex™ 7 times per week for 4 weeks. The dose of 30 mg of cyanidin-3-glucoside per kg of body weight calculates to be 0.177 millimoles per kg body weight. The dose of PCA was the same in terms of millimoles per kg body weight.
(§4) The experimental rabbits underwent surgery with an intent to create a severe degenerative arthritis by cutting the medial collateral ligament, the anterior cruciate ligament and removing the medial meniscus. […]
Synovial Tissue (Synovium)—Gene Expression Level Detected by Real-Time PCR

The subject of a further test is MMP-3. Nature of the test: MMP-3 expression in cartilage, histochemical staining and scoring, rabbit arthritis model. The class given is in vivo.
Text: as §1, §3
(§5) The experimental rabbits underwent surgery with an intent to create a severe degenerative arthritis by cutting the medial collateral ligament, the anterior cruciate ligament and removing the medial meniscus. A partial thickness laceration was made longitudinally on the lateral femoral condyle for future assessment of potential for repair. The surgery was performed by two licensed veterinarians. One surgeon was very experienced. The other surgeon was a recent graduate.
(§6) At necropsy, the synovial fluid was harvested percutaneously and upon arthrotomy. The synovium was harvested from posterior compartment. The patella and adjacent synovium was procured as a separate specimen as was the medial and lateral condyle.
(§7) The synovial fluid and half of the synovium was frozen and sent to BioBoston Laboratory for chemical analysis. The other half of the synovium and bone was sent to McClinchery Histology in Stockbridge, Mich. for histological preparation and staining. Patellar slides were sent to BioBoston Contract Laboratories for histochemical staining and ICRS grading. Sample slides were examined for Lubricin at Myron Spector laboratory.
MMP3 is known as matrix metallopeptidase 3, or stromelysin 1 or progelatinase. Proteins of the matrix metalloproteinase (MMP) family are involved in the breakdown of 20 extracellular matrix in normal physiological processes, such as embryonic development, reproduction, and tissue remodeling, as well as in disease processes, such as arthritis and metastasis. […] See FIG. 2C. • Synovial Tissue (Synovium)—Detected by ELISA • MMP-3 levels were reduced in all four groups. See FIG. 9B. • Synovial Tissue (Synovium)—Gene Expression Level Detected by Real-Time PCR • MMP-3 gene expression was decreased in all groups. See FIG. 13A. • Histochemical Scoring Analysis

Another test deals with TNF-alpha. Nature of the test: TNF-alpha in synovial fluid by ELISA, rabbit arthritis model. The class given is in vivo. The settings on record: therapeutic groups, oral 4 weeks, vs control; not statistically significant.
Text: as §1, §3, §4
(§8) Synovial Fluid—Detected by ELISA

Another test deals with ADAMTS-5. Nature of the test: ADAMTS-5 in synovial fluid by ELISA, rabbit arthritis model. The class given is in vivo.
Text: as §1, §3, §5, §6
(§9) The synovial fluid and half of the synovium was frozen and sent to BioBoston Laboratory for chemical analysis. The other half of the synovium and bone was sent to McClinchery Histology in Stockbridge, Mich. for histological preparation and staining. […]
as §8

For a further test, the system named is lymphocytes. Nature of the test: Number of lymphocytes in synovial fluid, rabbit arthritis model. The class given is in vivo. The conditions noted are these: therapeutic groups, oral days 42-70, vs control.
Text: as §1, §3, §5, §6
In addition to testing for the increase or decrease of various factors and cytokines, tests were run to count the number of white blood cells, including polymorphonuclear leukocytes (PMN), macrophages (Mac) and lymphocytes (Lym). […]

The next test deals with TGF-beta. Nature of the test: TGF-beta in synovium by ELISA, rabbit arthritis model. The settings on record: therapeutic group, oral days 42-70, vs control. The class given is in vivo.
Text: as §1
The prophylactic groups were given PROC3G™ by Chromadex™ at a dose of 30 mg/kg of body weight of either C3G or PCA by mouth, 7 times per week for 42 days. The therapeutic groups' treatment was initiated on day 42 with a daily dose of PROC3G™ by Chromadex™ 7 times per week for 4 weeks. […]
TGF-β induces apoptosis in numerous cell types. […] It is a type of cytokine which plays a role in immunity, cancer, bronchial asthma, heart disease, diabetes, hereditary hemorrhagic telangiectasia, Marfan syndrome, vascular Ehlers-Danlos syndrome Loeys-Dietz syndrome, Parkinson's disease, and AIDS. • Synovial Fluid—Detected by ELISA • TGF-beta was decreased in all groups. See FIG. 2B. • Synovial Tissue (Synovium)—Detected by ELISA • TGF-beta was increased in the C3G therapeutic group.

A further test has as its system C-reactive protein (CRP). Nature of the test: C-reactive protein (CRP) in plasma after knee surgery. The class given is in vivo, rabbit. Here is the method: C-reactive protein (CRP) is a protein found in the blood plasma, the levels of which rise in response to inflammation (i.e., C-reactive protein is an acute-phase protein). Its physiological role is to bind to phosphocholine expressed on the surface of dead or dying cells (and some types of bacteria) in order to activate the complement system via the C1Q complex. CRP rises within two hours of the onset of inflammation, up to a 50,000-fold, and peaks at 48 hours. […] CRP is thus a screen for inflammation.
Knee surgery was performed to create a severe irreparable degenerative knee joint, which in turn elevated the CRP in the plasma to average of […]. A historical normal amount of CRP is 3.15 micrograms/mL. See Sun H, et al., Am J Pathol. October 2005; 167(4): 1139-1148. Rabbit CRP levels are close to the mean values of healthy middle-aged humans (2.82 mg/L) reported in the literature. See Ockene I S, et al., Clin Chem. 2001; 47:444-450.
The controls in the study were animals that had surgery and received no treatment. The prophylaxis test groups had the surgery and received 6 weeks of oral C-3-G or PCA 7 times per week as described in example 1. The therapeutic treatment group had surgery, received no treatment for 41 days and then at day 42 received oral C-3-G or PCA 7 times per week as described in example 1.

For the next test, the system named is lubricin. Nature of the test: Lubricin in synovium by ELISA, rabbit arthritis model. The class given is in vivo.
Text: as §1, §3, §5, §6, §9
(§10) Synovial Tissue (Synovium)—Detected by ELISA

Another test concerns MMP-1. Nature of the test: MMP-1 in synovium by ELISA, rabbit arthritis model. The class given is in vivo. The settings on record: therapeutic group, oral days 42-70, vs control.
Text: as §1, §3
The experimental rabbits underwent surgery with an intent to create a severe degenerative arthritis by cutting the medial collateral ligament, the anterior cruciate ligament and removing the medial meniscus. A partial thickness laceration was made longitudinally on the lateral femoral condyle for future assessment of potential for repair. […]

The next test concerns TIMP-1. Nature of the test: TIMP-1 in synovial fluid by ELISA, rabbit arthritis model. The class given is in vivo. The settings on record: statistical significance not evident.
Text: as §1, §3, §4, §8

For another test, the system named is MMP3. Nature of the test: MMP3 in synovial fluid by ELISA, rabbit arthritis model. The class given is in vivo. The settings on record: therapeutic groups, oral days 42-70, vs control.
Text: as §1, §2
MMP3 is known as matrix metallopeptidase 3, or stromelysin 1 or progelatinase. […] See FIG. 2C. • Synovial Tissue (Synovium)—Detected by ELISA • MMP-3 levels were reduced in all four groups. See FIG. 9B. • Synovial Tissue (Synovium)—Gene Expression Level Detected by Real-Time PCR • MMP-3 gene expression was decreased in all groups. […]

A further test concerns MMP-13. Nature of the test: MMP-13 in synovium by ELISA, rabbit surgically induced knee arthritis. The class given is in vivo. The settings on record: vs untreated control, not statistically significant.
Text: as §1, §3, §5, §6, §7, §10

In a further test the test system is IGF-1. Nature of the test: IGF-1 in plasma, rabbit arthritis model. The class given is in vivo. The conditions noted are these: control group 25 PG/ML.
Text: as §1, §3, §5
Blood testing was performed prior to necropsy on C3G, PCA, glucose, MMP-3 and IGF-1 to assess any systemic effects.

[1] abbreviates: prophylactic groups, oral days 1-42.
Setting [2] is: prophylactic groups, oral days 1-42, vs control.
The mark [3] stands for this setting: therapeutic groups, oral days 42-70.
Where [4] appears, read: therapeutic groups, oral days 42-70, vs control.

SMILES strings stand for the structures.

With `OC[C@H]1O[C@@H](Oc2cc3c(O)cc(O)cc3[o+]c2-c2ccc(O)c(O)c2)[C@H](O)[C@@H](O)[C@@H]1O` [C3G, cyanidin-3-glucoside, reference compound], the “levels of IL-1 beta in synovium” value in the test on IL-1 beta was “decreased”. In addition, the “ADAMTS-5 gene expression in synovium” value in the test with ADAMTS-5 gene expression is listed as “decreased”. For the same compound, the “histochemical staining for the presence of MMP-3 in cartilage” value in the test with MMP-3 (setting [1]) is “very minimal positive stain”; in the test on MMP-3 (setting [3]), “no staining”. In addition, the “MMP-3 expression in cartilage” value with MMP-3 (setting [2]) and in the test with MMP-3 (setting [4]) was “reduced” each time. For the same compound, the “TNF-alpha levels in synovial fluid” value with TNF-alpha is given as “slight increase”. Besides, the “ADAMTS-5 in synovial fluid” value with ADAMTS-5 (setting [2]) and in the test with ADAMTS-5 (setting [4]) was “decreased” each time. Moreover, the “number of lymphocytes in synovial fluid” value with lymphocytes was “decreased”. In addition, the TGF-beta in synovium result with TGF-beta was “increased”. Further, in the test on C-reactive protein (CRP) (given by oral route immediately after injury), the “CRP, an indicator of inflammation” value was “kept to normal levels”. Besides, the “plasma CRP level” value in the test on C-reactive protein (CRP) (prophylaxis test group, 6 weeks oral treatment from surgery, untreated control at 42 days 8.8 mg/mL) is 3.1 micrograms/mL; in the test with C-reactive protein (CRP) (therapeutic group, no treatment for 6 weeks after surgery, then 4 weeks oral treatment), 28.3 mg/mL. In addition, the lubricin in synovium result in the test with lubricin (setting [2]) and with lubricin (setting [4]) was “increased” throughout. The MMP-1 in synovium result with MMP-1 is listed as “decrease”. Besides, the “TIMP-1 levels in synovial fluid” value in the test on TIMP-1 (setting [2]) and in the test on TIMP-1 (setting [4]) was “elevated” each time. In the test on MMP3, the “MMP3 in synovial fluid” value is recorded as “decreased”. Besides, the “MMP-13 levels in synovium” value with MMP-13 (prophylactic groups, oral 7 times per week days 1-42 (C3G 30 mg/kg, PCA 26.4 mg/kg)) is reported as “increased slightly”; in the test with MMP-13 (therapeutic groups, oral 7 times per week days 42-70 (C3G 30 mg/kg, PCA 26.4 mg/kg)), “slightly decreased”. The figures for the “IGF-1 in the plasma” value in the test on IGF-1 (setting [1]) and in the test with IGF-1 (setting [3]) were 15.8 pg/mL and 28.5 pg/mL, respectively.
